We go through 58 molecules from patent publication US8293729B2 (Boehringer Ingelheim International GmbH, priority 2009, dated 2012).

Each structure is given as a SMILES string.

The first assay has as its target T1, human GPR119 receptor (Homo sapiens, UniProt Q8TDV5, S329A/T327A).
T1 construct: N-terminal leader […]; expressed in transfected cells
T1 sequence (Q8TDV5 with tags, fused parts or gaps T327A/S329A): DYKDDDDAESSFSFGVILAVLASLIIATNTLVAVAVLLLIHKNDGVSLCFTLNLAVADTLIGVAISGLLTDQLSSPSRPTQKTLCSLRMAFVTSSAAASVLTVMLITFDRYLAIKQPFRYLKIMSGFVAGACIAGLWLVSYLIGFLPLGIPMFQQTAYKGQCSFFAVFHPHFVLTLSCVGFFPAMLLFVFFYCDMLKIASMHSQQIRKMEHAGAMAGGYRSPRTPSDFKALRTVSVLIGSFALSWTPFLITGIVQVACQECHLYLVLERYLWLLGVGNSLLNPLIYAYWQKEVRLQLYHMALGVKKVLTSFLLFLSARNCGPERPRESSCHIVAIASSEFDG
Briefly: cAMP assay (LANCE cAMP-384) in HEK293 cells stably expressing mutant human GPR119 receptor. The conditions noted are these: HEK293, 20 min; at 10 μM; printed in EC50 column of the 34th table; read-out: stimulation in % at 10 μM. The class given is cell-based. In a few lines:
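HEK293 cells stably expressing human GPR119 (T327A/S329A, modified N-terminus), 1000 cells/well, exposed to compound for 20 min at 37° C. cAMP quantified by LANCE TR-FRET against a standard curve; EC50 from 12 points, 30 μM to 100 pM, or % stimulation at 10 μM.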
(In general: cAMP levels reflect the balance of adenylyl cyclase and phosphodiesterase activity.)
With `CC(C)OC(=O)CN1CCC(ON=C2CCN(c3ccc(S(C)(=O)=O)cc3F)CC2)CC1` [Example 65-3], the activation at 10 µM came out at 64%.

Staying with this assay, now noted: HEK293, 20 min; at 10 μM; printed in EC50 column of the 36th table; read-out: stimulation in % at 10 μM.
Turning to `CS(=O)(=O)c1ccc(N2CCC(=NOC3CCN(Cc4nccs4)CC3)CC2)c(F)c1` [Example 66-6], the activation at 10 µM was found to be 63%.

The same assay, now with this note: the 33rd table; read-out: EC50.
A word on the EC50: it is the midpoint of the concentration-response curve. As to `CCN(CC)CCCOC(=O)N1CCC(ON=C2CCN(c3ccc(S(C)(=O)=O)cc3F)CC2)CC1` [Example 64-29], the EC50 is above 10000 nM. The same measure, in the same setting: then `COC(=O)C(C)(C)COC(=O)N1CCC(ON=C2CCN(c3ccc(S(C)(=O)=O)cc3F)CC2)CC1` [Example 64-30], with 277 nM; and `CCOC(=O)C1CC1COC(=O)N1CCC(ON=C2CCN(c3ccc(S(C)(=O)=O)cc3F)CC2)CC1` (stereo not shown) [Example 64-31], with 107 nM; and `CC(C)N(CCOC(=O)N1CCC(ON=C2CCN(c3ccc(S(C)(=O)=O)cc3F)CC2)CC1)C(C)C` [Example 64-32], with above 10000 nM. Regarding `CS(=O)(=O)c1ccc(N2CCC(=NOC3CCN(C(=O)OC4CNC4)CC3)CC2)c(F)c1` [Example 64-33], the half-maximal effective concentration (EC50) is above 10000 nM. On the same count and under the same terms, under `CC(N)COC(=O)N1CCC(ON=C2CCN(c3ccc(S(C)(=O)=O)cc3F)CC2)CC1` (stereo not shown) [Example 64-34] stands above 10000 nM; under `CC(N)COC(=O)N1CCC(ON=C2CCN(c3ccc(S(C)(=O)=O)cc3F)CC2)CC1` (stereo not shown) [Example 64-35], above 10000 nM. The same measure, in the same setting: under `CS(=O)(=O)c1ccc(N2CCC(=NOC3CCN(C(=O)OC4CCNC4)CC3)CC2)c(F)c1` (stereo not shown) [Example 64-36] stands above 10000 nM; under `CC(C)[C@H](N)COC(=O)N1CCC(ON=C2CCN(c3ccc(S(C)(=O)=O)cc3F)CC2)CC1` [Example 64-37], above 10000 nM; under `CS(=O)(=O)c1ccc(N2CCC(=NOC3CCN(C(=O)OCC4CNCCO4)CC3)CC2)c(F)c1` (stereo not shown) [Example 64-38], above 10000 nM. Still for that read-out and setting: under `CS(=O)(=O)c1ccc(N2CCC(=NOC3CCN(C(=O)OCCC4CC4)CC3)CC2)c(F)c1` [Example 64-39] stands 127 nM; under `CC(C)CCOC(=O)N1CCC(ON=C2CCN(c3ccc(S(C)(=O)=O)cc3F)CC2)CC1` [Example 64-40], 89 nM. Consider `CC(C)(C)CCOC(=O)N1CCC(ON=C2CCN(c3ccc(S(C)(=O)=O)cc3F)CC2)CC1` [Example 64-41], for which the EC50 was found to be 202 nM. The same measure, in the same setting: then `CS(=O)(=O)c1ccc(N2CCC(=NOC3CCN(C(=O)OCCC4CCCCC4)CC3)CC2)c(F)c1` [Example 64-42], with 350 nM; and `CS(=O)(=O)c1ccc(N2CCC(=NOC3CCN(C(=O)OCCN4CCOCC4)CC3)CC2)c(F)c1` [Example 64-43], with above 10000 nM. As to `CC(C)[C@@H](N)COC(=O)N1CCC(ON=C2CCN(c3ccc(S(C)(=O)=O)cc3F)CC2)CC1` [Example 64-44], the EC50 was above 10000 nM.

For `CCCCOC(=O)N1CCC(ON=C2CCN(c3ccc(S(C)(=O)=O)cc3F)CC2)CC1` [Example 64-45], the EC50 came to 54 nM.

Regarding `CCC(C)COC(=O)N1CCC(ON=C2CCN(c3ccc(S(C)(=O)=O)cc3F)CC2)CC1` (stereo not shown) [Example 64-47], the EC50 was found to be 43 nM. Still for that read-out and setting: under `CC[C@H](C)COC(=O)N1CCC(ON=C2CCN(c3ccc(S(C)(=O)=O)cc3F)CC2)CC1` [Example 64-48] stands 54 nM; under `CCC(CC)COC(=O)N1CCC(ON=C2CCN(c3ccc(S(C)(=O)=O)cc3F)CC2)CC1` [Example 64-49], 54 nM.

The same assay, now with this note: the 34th table, compounds 65-1 to 65-24; read-out: EC50.
Consider `CCN(CC)C(=O)CN1CCC(ON=C2CCN(c3ccc(S(C)(=O)=O)cc3F)CC2)CC1` [Example 65-1, N,N-Diethyl-2-{4-[1-(2-fluoro-4-methanesulfonyl-phenyl)-piperidin-4-ylideneaminooxy]-piperidin-1-yl}-acetamide], for which the half-maximal effective concentration (EC50) was above 10000 nM. Same read-out and setting: then `CS(=O)(=O)c1ccc(N2CCC(=NOC3CCN(CC(=O)Nc4ccccc4)CC3)CC2)c(F)c1` [Example 65-2], with above 10000 nM; and `CC(C)NC(=O)CN1CCC(ON=C2CCN(c3ccc(S(C)(=O)=O)cc3F)CC2)CC1` [Example 65-4], with above 10000 nM; and `CS(=O)(=O)c1ccc(N2CCC(=NOC3CCN(CC(=O)OCc4ccccc4)CC3)CC2)c(F)c1` [Example 65-5], with 3380 nM. The same measure, in the same setting: under `CS(=O)(=O)c1ccc(N2CCC(=NOC3CCN(CC(=O)Oc4ccccc4)CC3)CC2)c(F)c1` [Example 65-6] stands 854 nM. Same read-out and setting: under `CC(C)(C)COC(=O)N1CCC(ON=C2CCN(c3ccc(S(C)(=O)=O)cc3F)CC2)CC1` [Example 65-7] stands 57 nM; under `CC(C)NC(=O)N1CCC(ON=C2CCN(c3ccc(S(C)(=O)=O)cc3F)CC2)CC1` [Example 65-8], above 10000 nM. Take `CS(=O)(=O)c1ccc(N2CCC(=NOC3CCN(C(=S)NC4CCCCC4)CC3)CC2)c(F)c1` [Example 65-9]: the concentration for a half-maximal effect (EC50) is 1800 nM. Regarding `CS(=O)(=O)c1ccc(N2CCC(=NOC3CCN(C(=S)NC4CC4)CC3)CC2)c(F)c1` [Example 65-10], the EC50 was above 10000 nM. Still for that read-out and setting: under `CC(C)(C)NC(=O)N1CCC(ON=C2CCN(c3ccc(S(C)(=O)=O)cc3F)CC2)CC1` [Example 65-11] stands 1040 nM; under `CS(=O)(=O)c1ccc(N2CCC(=NOC3CCN(C(=O)Oc4ccccc4)CC3)CC2)c(F)c1` [Example 65-12], 57 nM.

In the case of `CC(C)COC(=O)N1CCC(ON=C2CCN(c3ccc(S(C)(=O)=O)cc3F)CC2)CC1` [Example 65-13], the EC50 amounted to 82 nM. On the same count and under the same terms, under `CS(=O)(=O)c1ccc(N2CCC(=NOC3CCN(C(=O)OCc4ccccc4)CC3)CC2)c(F)c1` [Example 65-14] stands 153 nM; under `C=C(C)OC(=O)N1CCC(ON=C2CCN(c3ccc(S(C)(=O)=O)cc3F)CC2)CC1` [Example 65-15], 64 nM; under `CC(C)S(=O)(=O)N1CCC(ON=C2CCN(c3ccc(S(C)(=O)=O)cc3F)CC2)CC1` [Example 65-16], above 10000 nM. Regarding `CS(=O)(=O)c1ccc(N2CCC(=NOC3CCN(C(=O)Nc4ccccc4)CC3)CC2)c(F)c1` [Example 65-17], the EC50 turned out to be 2040 nM. Same read-out and setting: then `CS(=O)(=O)c1ccc(N2CCC(=NOC3CCN(S(=O)(=O)c4ccccc4)CC3)CC2)c(F)c1` [Example 65-18], with 1100 nM.

Consider `CS(=O)(=O)c1ccc(N2CCC(=NOC3CCN(C(=O)c4ccccc4)CC3)CC2)c(F)c1` [Example 65-21], for which the EC50 is 747 nM. Same read-out and setting: under `CS(=O)(=O)c1ccc(N2CCC(=NOC3CCN(C(=O)c4ccc(F)cc4)CC3)CC2)c(F)c1` [Example 65-22] stands 132 nM.

Still in this assay, the particulars now being: the 35th table, compounds 65-25 to 65-36; read-out: EC50.
Regarding `CS(=O)(=O)c1cc(F)c(N2CCC(=NOC3CCN(C(=O)Cc4ccccc4)CC3)CC2)cc1F` [Example 65-28], the half-maximal effective concentration (EC50) was 240 nM.

The assay is the same for the next values; noted with them: the 36th table, compounds 66-1 to 66-51; read-out: EC50.
As to `Cn1cccc1CN1CCC(ON=C2CCN(c3ccc(S(C)(=O)=O)cc3F)CC2)CC1` [Example 66-1, 1-(2-Fluoro-4-methanesulfonyl-phenyl)-piperidin-4-one O-[1-(1-methyl-1H-Pyrrol-2-ylmethyl)-piperidin-4-yl]-oxime], the EC50 is above 10000 nM.

In the case of `CS(=O)(=O)c1ccc(N2CCC(=NOC3CCN(Cc4ncc[nH]4)CC3)CC2)c(F)c1` [Example 66-2], the EC50 is above 10000 nM. The same measure, in the same setting: under `CS(=O)(=O)c1ccc(N2CCC(=NOC3CCN(Cc4ccccn4)CC3)CC2)c(F)c1` [Example 66-3] stands above 10000 nM; under `CS(=O)(=O)c1ccc(N2CCC(=NOC3CCN(Cc4ccncc4)CC3)CC2)c(F)c1` [Example 66-4], above 10000 nM. The same measure, in the same setting: under `Cn1cc(Cl)c(CN2CCC(ON=C3CCN(c4ccc(S(C)(=O)=O)cc4F)CC3)CC2)n1` [Example 66-5] stands above 10000 nM; under `Cc1c(CN2CCC(ON=C3CCN(c4ccc(S(C)(=O)=O)cc4F)CC3)CC2)cnn1C` [Example 66-7], above 10000 nM. On the same count and under the same terms, under `Cc1nc(CN2CCC(ON=C3CCN(c4ccc(S(C)(=O)=O)cc4F)CC3)CC2)c[nH]1` [Example 66-8] stands above 10000 nM; under `Cc1nc[nH]c1CN1CCC(ON=C2CCN(c3ccc(S(C)(=O)=O)cc3F)CC2)CC1` [Example 66-9], above 10000 nM. For the molecule `Cn1cc(CN2CCC(ON=C3CCN(c4ccc(S(C)(=O)=O)cc4F)CC3)CC2)cn1` [Example 66-10], the concentration for a half-maximal effect (EC50) was above 10000 nM. On the same count and under the same terms, then `CS(=O)(=O)c1ccc(N2CCC(=NOC3CCN(Cc4cscn4)CC3)CC2)c(F)c1` [Example 66-11], with above 10000 nM; and `Cn1ccnc1CN1CCC(ON=C2CCN(c3ccc(S(C)(=O)=O)cc3F)CC2)CC1` [Example 66-12], with above 10000 nM. Still for that read-out and setting: under `Cc1cc(CN2CCC(ON=C3CCN(c4ccc(S(C)(=O)=O)cc4F)CC3)CC2)n(C)n1` [Example 66-13] stands above 10000 nM; under `Cc1nc(CN2CCC(ON=C3CCN(c4ccc(S(C)(=O)=O)cc4F)CC3)CC2)cs1` [Example 66-14], above 10000 nM; under `CS(=O)(=O)c1ccc(N2CCC(=NOC3CCN(Cc4ccccc4)CC3)CC2)c(F)c1` [Example 66-15], 982 nM. Still for that read-out and setting: then `CS(=O)(=O)c1ccc(N2CCC(=NOC3CCN(Cc4ccccc4F)CC3)CC2)c(F)c1` [Example 66-16], with 560 nM. Turning to `CS(=O)(=O)c1ccc(N2CCC(=NOC3CCN(Cc4ccccc4Cl)CC3)CC2)c(F)c1` [Example 66-17], the concentration for a half-maximal effect (EC50) came to 661 nM.
